How the values were obtained:
[1] = in vivo; listed as trimetazidine, dihydrochloride; cited from earlier work
[2] = system: liver failure patients; assay: Single-center cohort clinical trial, trimetazidine (TMZ) vs DCA control, liver function indicators ALT/AST; format: in vivo, human; conditions: after 5 days of treatment, FIG. 2
Text: Evaluate if trimetazidine is capable of improving the liver function of patients with hepatic failure.
The single-center cohort study was adopted as the clinical trial method.
In accordance with relevant references and the results of previous trails, the number of cases shall be no less than 50. Taking into account the number of loss to follow up and possible drop-out (to be controlled around 10%), 60 cases are required to be selected (30 cases for the trial group and 30 cases for the control group).
All serious hepatitis patients enrolled between Aug. 19, 2014 and […] were put in the control group; and all those enrolled between December 9 and the application date were in the trial group.
2. Exclusion Criteria • Patients under 18 or over 70 years old; • patients diagnosed with shock liver (ischemic liver disease); • patients with liver failure in pregnance or HELLP syndrome; • patients with liver failure secondary to malignant tumor in the liver; • patients with refractory hypotension • patients with septic shock; • patients about to receive liver transplant (within 8 hours); • patients allergic to trimetazidine drug; • patients […] of trimetazidine drug; • abuser of drugs and/or alcohol; • pregnant or lactation women; • patients with recent myocardial infarct (within half a year); • patients with serious renal inadequacy.
2. Control group: Diisopropylamine Dichloroacetate (DCA) (80 mg/D) for the control group in this trial, provided by Dandong Yichuang Pharmaceutical Co., Ltd, for a 4-week course of treatment.
3. […] HBV-related liver failure patients were also treated with lamivudine.
1. Alanine aminotransferase (ALT), tested by chromatometry, with products provided by Roche Diagnostics (Shanghai) Ltd.
2. Aspartate transaminase (AST), tested by chromatometry, with products provided by Roche Diagnostics (Shanghai) Ltd.

[3] = system: liver failure patients; assay: Clinical trial involving 165 cases of liver failure, TMZ vs traditional therapeutic approach (general treatment); format: in vivo, human
[4] = system: patients with liver failure / serious hepatitis; assay: Clinical cases: individual patients given oral TMZ on top of combined treatment; format: in vivo, human
Text: Case 1: The patient had past positive HBsAg for over 20 years, during which they took multiple reexaminations of liver function and, as the results of all color ultrasound examinations were within normal range, they were not given any special treatment. Three months before, after catching cold and overwork, they developed abdominal distension and yellow urine, and was admitted to hospital following aggravation of the condition over 6 days. On admission, they were complicated with massive seroperitoneum and serious xanthochromia throughout the skin and mucosa of their whole body, feeling serious nausea, anorexia and feebleness.
Case 2: had had yellow urine for 25 days and dry mouth and bitter taste in mouth for 10 days before they came to the First Affiliated Hospital of Zhengzhou University. […] If they had been treated with the original approach, it would probably have taken two months before they could be discharged from hospital.
Case 3: had past positive HBsAg for 8 years, without regular treatment or periodic reexamination of relevant indicators. […] They took orally some “stomach medicine” (specific medicine not known) with poor effect. After the aforesaid symptoms aggravated for half a month, with urine turning as yellow as strong tea water, they were admitted to the First Affiliated Hospital of Zhengzhou University on Jan. 21, 2015. […] In merely 12 days, the patient achieved decrease of transaminase by dozens of times, relief from the critical condition, alleviated hepatocyte inflammatory responses and a favorable condition for liver cells, and greatly shortened length of hospitalization.
Case 4: […] They felt abdominal distension and nausea, accompanied with hydroncus in lower limbs, when they got tired half a month ago. For further treatment, they were admitted to the First Affiliated Hospital of Zhengzhou University on Jan. 13, 2015. Color ultrasound examination of abdomen detected diffuse changes of echo patterns of liver, cholecystolithiasis and cholecystitis. […] The patient's liver enzyme decreased to normal level after a short period, meeting the requirements for a surgical operation. Following the operation, their abdominal pain disappeared, with liver enzyme back to normal level and improved appetite. Their quality of life improves now without any discomfort.
Case 5: had past positive HBsAg for over 10 years, with HBsAg (+), HBeAg (+) and HBcAb (+), and had atrial fibrillation over 5 years, during which they orally took traditional Chinese medicine intermittently, but without regular treatment. They complained of feebleness, nausea, dry mouth and bitter taste, and anorexia for 6 days, and was hospitalized on Jan. 31, 2015. After admission, they had ALT 1881 u/L, AST 699 u/L, and prothrombin time activity (PTA) at 26%. The patient was extremely weak, in very poor spirits, with very poor appetite. A notice of critical illness diagnosis was given. […] The patient achieved a rapid decrease of transaminase and obvious improvement of liver synthesis function, and was safe from the critical condition. They continued to take the medicine till maturity of the treatment course, to improve the hepatocyte microcirculation and excretion of bilirubin. The patient soon recovered and left hospital.

[5] = Case 5, one week plus another 5 days of TMZ

For `COc1ccc(CN2CCNCC2)c(OC)c1OC.Cl.Cl` [TMZ, 1-[2,3,4-trimethoxybenzyl] piperazine dihydrochloride], the elimination half-life [1] is given as “approximately 6 hours”, the “ALT decrease (k, mathematical model analysis)” value [2] is given as 259.4 and the “AST decrease (k, mathematical model analysis)” value [2] is given as 362.53. For the same molecule, the 30-day immortality rate ([3]; TMZ 20 mg tablet orally 3 times a day, 4 weeks, traditional therapeutic approach 44%, FIG. 5) was “approximately 18%”, the 90-day immortality rate ([3]; TMZ 20 mg tablet orally 3 times a day, 4 weeks, traditional therapeutic approach 68%, FIG. 5) was 35% and the “decrease rate of alanine aminotransferase and aspartate transaminase” value ([3]; laboratory test indicators, FIG. 3) was “significantly raise the decrease rate”. The “serious adverse reaction during the clinical trial” value ([3]; liver failure patients) was “no serious adverse reaction occurred”, the “hepatic glucose metabolism (PET-CT)” value ([3]; one liver failure patient, before vs after taking TMZ, FIG. 4) was “remarkably improved” and the AST ([4]; Case 1, 12 days after start of TMZ, on admission AST 303 u/L) was 68 u/L. The ALT ([4]; Case 1, HBsAg positive, 12 days after start of TMZ 1 tablet 3 times a day, on admission ALT 270 u/L) was 41 u/L, the total bilirubin ([4]; Case 2, oral TMZ for 20 days, on admission 401.9 umol/L) was 130 µmol/L and the AST ([4]; Case 2, oral TMZ for 20 days, on admission AST 484 u/L) was 52 u/L. The ALT ([4]; Case 2, serious drug-induced hepatitis, oral TMZ for 20 days, on admission ALT 983 u/L) was 95 u/L, the ALT ([4]; Case 3, acute-on-chronic liver failure, admitted Jan. 21, 2015, reexamination February 5, on admission ALT 1386 u/L) was 76 u/L and the “prothrombin time activity (PTA)” value ([4]; Case 3, reexamination February 5, on admission 27.4%) was 57.8%. The AST ([4]; Case 3, reexamination February 5, on admission AST 1368 u/L) was 85 u/L, the ALT ([4]; Case 4, HBsAg positive, oral TMZ for 13 days, on admission ALT 599 u/L) was 66 u/L and the AST ([4]; Case 4, oral TMZ for 13 days, on admission AST 663 u/L) was 79 u/L. The “prothrombin time activity (PTA)” value ([4]; Case 5, one week after start of oral TMZ, after admission 26%) was 48%, the ALT ([4]; Case 5, one week after start of oral TMZ, after admission ALT 1881 u/L) was 255 u/L and the AST ([4]; Case 5, one week after start of oral TMZ, after admission AST 699 u/L) was 77 u/L. The ALT [4, 5] was 117 u/L, the AST [4, 5] was 226 u/L and the “prothrombin time activity (PTA)” value [4, 5] was 50%.

In the case of Diisopropylamine Dichloroacetate [DCA], the “ALT decrease (k, mathematical model analysis)” value [2] is reported as 67.325 and the “AST decrease (k, mathematical model analysis)” value [2] is reported as 142.77.

— patent US20180153886A1, “USE OF TR[…] PREPARATION OF DRUGS FOR PREVENTING AND TREATING LIVER DISEASES” (priority 2015, published 2018)
